From PMC10788915, “Fragment Merging, Growing, and Linking Identify New Trypanothione Reductase Inhibitors for Leishmaniasis” (Journal of Medicinal Chemistry, 2024)

Legend:
[1] = molecular target: T1, Leishmania infantum TR (LiTR) (Leishmania infantum, UniProt A4HSF7); experiment: LiTR inhibition kinetics, Ki from Dixon plots; assay type: biochemical; conditions: for mode of inhibition of LiTR: Dixon plots; for Ki: graphically determined from Dixon plots
T1 construct: The TbTR and LiTR genes were subcloned in a pET28b vector; 6-His (cleaved yes); made in house; host or cells: E. coli BL21(DE3), pET28b
Description: Enzymatic inhibition assays were performed in 50 mM HEPES pH 7.4, 40 mM NaCl at 25 °C using a JASCO V650 spectrophotometer equipped with a JASCO EHC 716 Peltier element to ensure controlled temperature. The first experiment was carried out using 50 nM LiTR, 10 or 100 μM compound to be tested, 150 μM trypanothione (trypanothione disulfide purchased from Bachem), and 100 μM NADPH (tetrasodium salt, purchased from Calbiochem). The best inhibitor candidates were then tested at concentrations ranging from 1 nM to 250 μM to determine the IC50. Assays were initiated upon addition of 100 μM NADPH to 50 nM LiTR or hGR (human glutathione reductase purchased from Sigma-Aldrich) in the presence of different concentration of compounds and 150 μM trypanothione. For both experiments, the oxidation of NADPH was followed as a decrease in absorbance at 340 nm. For each concentration of compound, the initial velocity of the NADPH oxidation was used to determine the percentage of LiTR activity with respect to that in the absence of any compound. The IC50 was determined upon fitting the residual activity of TR as a dose–response logistic equation defined as ymin + (ymax – ymin)/(1 + (x/IC50)^slope). […] The Ki was determined graphically upon linear fitting of data points for each trypanothione concentration. Data analysis was performed with QtiPlot 0.9.8.9 svn 2288, and graphs were made with Matplotlib. […]
assays were carried out at 25°C on a JASCO V650 spectrophotometer equipped with a JASCO EHC716 Peltier unit. Compound concentrations range from 1 to 6 µM. Briefly, 50 nM LiTR were mixed in 50 mM HEPES pH 7.4, 40 mM NaCl with each compound and various concentrations of trypanothione (reported on the figure). After 3-minute incubation at 25°C, the measurement was initiated upon addition of 100 µM NADPH. The oxidation of NADPH was followed as a decrease in absorbance at 340 nm. The inverse of the initial velocity of LiTR enzymatic reaction was reported as a function of the compound concentration. The intersection of the linear fitting of data at different trypanothione concentration provides a graphical determination of the inhibition constant K i. Each data point is the mean of three measurements.
(§1) (1 picture or pasted object on this page, not shown here)

[2] = molecular target: T1, Leishmania infantum TR (LiTR); experiment: LiTR enzymatic inhibition assay (NADPH oxidation at 340 nm); assay type: biochemical; conditions: for IC50: 50 nM LiTR, 150 μM trypanothione, 100 μM NADPH, 25 °C; for gain in LiTR IC50 with respect to 5: compared to compound 5 (IC50 54.6 μM); for remaining activity at 10 µM: compound at 10 μM, mean ± SD, n = 3, read-out: LiTR residual activity %
Description: Enzymatic inhibition assays were performed in 50 mM HEPES pH 7.4, 40 mM NaCl at 25 °C using a JASCO V650 spectrophotometer equipped with a JASCO EHC 716 Peltier element to ensure controlled temperature. The first experiment was carried out using 50 nM LiTR, 10 or 100 μM compound to be tested, 150 μM trypanothione (trypanothione disulfide purchased from Bachem), and 100 μM NADPH (tetrasodium salt, purchased from Calbiochem). The best inhibitor candidates were then tested at concentrations ranging from 1 nM to 250 μM to determine the IC50. Assays were initiated upon addition of 100 μM NADPH to 50 nM LiTR or hGR (human glutathione reductase purchased from Sigma-Aldrich) in the presence of different concentration of compounds and 150 μM trypanothione. For both experiments, the oxidation of NADPH was followed as a decrease in absorbance at 340 nm. For each concentration of compound, the initial velocity of the NADPH oxidation was used to determine the percentage of LiTR activity with respect to that in the absence of any compound. The IC50 was determined upon fitting the residual activity of TR as a dose–response logistic equation defined as ymin + (ymax – ymin)/(1 + (x/IC50)^slope). […] The Ki was determined graphically upon linear fitting of data points for each trypanothione concentration. Data analysis was performed with QtiPlot 0.9.8.9 svn 2288, and graphs were made with Matplotlib.
Figure S3. Inhibition assay of LiTR (red) and hGR (grey) with compounds 5-6, 9-10 and 14.
Enzymatic assays were carried out at 25°C on a JASCO V650 spectrophotometer equipped with a JASCO EHC716 Peltier unit. Compound concentrations used during the experiments range from 1 […]
higher than 30 µM and 20 µM, respectively. Briefly, 50 nM LiTR or hGR (Sigma Aldrich) were mixed in 50 mM HEPES pH 7.4, 40 mM NaCl with each compound and 150 µM trypanothione or glutathione. After 3-minute incubation at 25°C, the measurement was initiated upon addition of 100 µM NADPH. The oxidation of NADPH was followed as a decrease in absorbance at 340 nm. Each initial velocity of LiTR enzymatic reaction with the compounds was expressed as a percentage of residual activity with respect to that in the absence of compound. Each data point is the mean of two measurements. The IC50 was determined upon fitting the data as a dose response logistic equation defined by the Kaleidagraph software as ymin+(ymax-ymin)/(1+(x/IC50)^slope).
as §1

[3] = Cytotoxicity assay on primary murine macrophages (MTT); assay type: cell-based, Balb/c mice; conditions: Balb/c, mouse, primary peritoneal exudate macrophages, read-out: primary murine macrophage CC50 ± SE (95% CI)
Description: (§2) To assess the cytotoxicity of compounds on mammalian macrophages, we tested all the compounds against both human leukemia monocyte cell line (THP-1 cells, ATCC) differentiated into macrophages by treatment with 40 ng/mL of phorbol myristate acetate (PMA; Sigma) for 48 h and peritoneal exudate macrophages harvested from Balb/c mice. […] Cell viability was evaluated using the MTT assay, and the concentration of the compound that produced a 50% reduction of cell viability in treated culture cells with respect to untreated ones (CC50) was determined by GraphPad Prism 5.0 (GraphPad Software Inc., San Diego, USA). […] The selectivity index for each compound was calculated as the ratio of cytotoxicity (CC50) in macrophages cells to activity (IC50) against Leishmania axenic amastigotes. The experiments were performed in triplicate, and two independent experiments were conducted.

[4] = Cytotoxicity assay on human THP-1-derived macrophages (MTT); assay type: cell-based; conditions: human, THP-1 cells differentiated into macrophages with PMA, 72 h, MTT; read-out: human THP-1-derived macrophage CC50 ± SE (95% CI)
Description: as §2

[5] = system: human THP-1-derived macrophages; experiment: as above; assay type: cell-based
Description: as §2

T1 sequence (A4HSF7 1-491): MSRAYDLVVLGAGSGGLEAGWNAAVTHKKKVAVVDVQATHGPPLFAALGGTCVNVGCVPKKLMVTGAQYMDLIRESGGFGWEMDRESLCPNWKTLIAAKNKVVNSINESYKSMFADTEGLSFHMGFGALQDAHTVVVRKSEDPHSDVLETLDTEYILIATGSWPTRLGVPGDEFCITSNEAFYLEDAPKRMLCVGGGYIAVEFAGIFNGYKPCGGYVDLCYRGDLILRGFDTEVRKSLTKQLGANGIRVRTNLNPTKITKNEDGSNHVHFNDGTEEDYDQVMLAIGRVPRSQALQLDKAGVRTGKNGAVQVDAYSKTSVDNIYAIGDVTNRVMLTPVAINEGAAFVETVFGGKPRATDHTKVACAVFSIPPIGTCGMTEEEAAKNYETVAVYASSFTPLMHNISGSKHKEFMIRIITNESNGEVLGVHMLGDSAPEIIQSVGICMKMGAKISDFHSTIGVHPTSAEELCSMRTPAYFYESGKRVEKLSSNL

SMILES: C[N+]1(CCCc2ccccc2)CCN(C(=O)N(Cc2ccc(C(=O)NCCc3ccc(F)cc3)o2)c2ccc(F)cc2)CC1.[I-] [Compound 9, 4-(((5-((4-Fluorophenethyl)carbamoyl)furan-2-yl)methyl)(4-fluorophenyl)carbamoyl)-1-methyl-1-(3-phenylpropyl)piperazin-1-ium Iodide]
- mode of inhibition of LiTR [1]: linear competitive inhibition
- Ki [1]: 5500 ± 200 nM
- IC50 [2]: 20500 ± 2000 nM
- gain in LiTR IC50 with respect to 5 [2]: about 3 fold
- remaining activity at 10 µM [2]: 48.5 ± 7.9%
- CC50 at 72 h [3]: 29.9 ± 4.2 µM
- CC50 at 72 h [4]: 38.4 ± 11 µM
- SI = human THP-1-derived macrophage CC50/axenic amastigote EC50 [5]: 3.7

SMILES: O=C(NCCc1ccc(F)cc1)c1ccc(CN(C(=O)N2CC[N+](CCCc3ccccc3)(Cc3ccc(Cl)c(Cl)c3)CC2)c2ccc(F)cc2)o1.[I-] [Compound 10, 1-(3,4-Dichlorobenzyl)-4-(((5-((4-fluorophenethyl)carbamoyl)furan-2-yl)methyl)(4-fluorophenyl)carbamoyl)-1-(3-phenylpropyl)piperazin-1-ium Iodide]
- mode of inhibition of LiTR [1]: linear competitive inhibition
- Ki [1]: 200 nM
- IC50 [2]: 1310 ± 70 nM
- gain in LiTR IC50 with respect to 5 [2]: 42 fold
- remaining activity at 10 µM [2]: 22 ± 11.6%
- CC50 at 72 h [3]: 12.5 ± 0.8 µM
- CC50 at 72 h [4]: 16 ± 2.4 µM
- SI = human THP-1-derived macrophage CC50/axenic amastigote EC50 [5]: 1.4

SMILES: O=C(NCCc1ccc(F)cc1)c1ccc(CNC(=O)N2CC[N+](CCCc3ccccc3)(Cc3ccc(Cl)c(Cl)c3)CC2)o1.[I-] [Compound 14, 1-(3,4-Dichlorobenzyl)-4-(((5-((4-fluorophenethyl)carbamoyl)furan-2-yl)methyl)carbamoyl)-1-(3-phenylpropyl)piperazin-1-ium Iodide]
- mode of inhibition of LiTR [1]: linear competitive inhibition
- Ki [1]: 800 ± 200 nM
- IC50 [2]: 2350 ± 210 nM
- gain in LiTR IC50 with respect to 5 [2]: 23 fold
- remaining activity at 10 µM [2]: 10.3 ± 2.8%
- CC50 at 72 h [3]: 12.7 ± 0.9 µM
- CC50 at 72 h [4]: 20.5 ± 3.6 µM
- SI = human THP-1-derived macrophage CC50/axenic amastigote EC50 [5]: 2.3
